Source: ChEMBL document CHEMBL6083190, “Synthesis and mechanistic study of Aβ42 C-terminus domain derived tetrapeptides that inhibit Alzheimer's Aβ-aggregation-induced neurotoxicity” (Bioorg Med Chem Lett, 2024)
Blank lines part the entries; values can stand above or below the compound they belong to. Calls of active or inactive are those of the source. The calls are words filed in the database; no cut-off is given here. Non-standard residues stand in square brackets, D forms with d. Residues, ends and D or L forms follow the SMILES beside them. Aib = CC(C)(N)C(=O)O

What was measured:
SH-SY5Y = assay: Inhibition of amyloid beta (1 to 42)-induced toxicity in human SH-SY5Y cells assessed as cell survival at 50 uM incubated for 24 hrs by MTT assay relative to control; assay type: functional; conditions: read-out: Survival
PC-12 [1] = assay: Protection against amyloid beta-induced neurotoxicity in rat PC-12 cells assessed as cell viability at 4 uM by MTT assay (reference value: 63.6 %); assay type: functional; conditions: read-out: Activity
[2] = target: Amyloid-beta precursor protein (Homo sapiens) (UniProt P05067); assay: Inhibition of amyloid beta (1 to 40) (unknown origin) self-aggregation assessed as random coil content at 1:5 amyloid-beta:compound concentration ratio incubated for 48 hrs by CD spectroscopy (reference value: 40.3 %); parameters: scale not given: the % may be the effect or the level left
Chain of Amyloid-beta precursor protein (Homo sapiens) (P05067 whole entry): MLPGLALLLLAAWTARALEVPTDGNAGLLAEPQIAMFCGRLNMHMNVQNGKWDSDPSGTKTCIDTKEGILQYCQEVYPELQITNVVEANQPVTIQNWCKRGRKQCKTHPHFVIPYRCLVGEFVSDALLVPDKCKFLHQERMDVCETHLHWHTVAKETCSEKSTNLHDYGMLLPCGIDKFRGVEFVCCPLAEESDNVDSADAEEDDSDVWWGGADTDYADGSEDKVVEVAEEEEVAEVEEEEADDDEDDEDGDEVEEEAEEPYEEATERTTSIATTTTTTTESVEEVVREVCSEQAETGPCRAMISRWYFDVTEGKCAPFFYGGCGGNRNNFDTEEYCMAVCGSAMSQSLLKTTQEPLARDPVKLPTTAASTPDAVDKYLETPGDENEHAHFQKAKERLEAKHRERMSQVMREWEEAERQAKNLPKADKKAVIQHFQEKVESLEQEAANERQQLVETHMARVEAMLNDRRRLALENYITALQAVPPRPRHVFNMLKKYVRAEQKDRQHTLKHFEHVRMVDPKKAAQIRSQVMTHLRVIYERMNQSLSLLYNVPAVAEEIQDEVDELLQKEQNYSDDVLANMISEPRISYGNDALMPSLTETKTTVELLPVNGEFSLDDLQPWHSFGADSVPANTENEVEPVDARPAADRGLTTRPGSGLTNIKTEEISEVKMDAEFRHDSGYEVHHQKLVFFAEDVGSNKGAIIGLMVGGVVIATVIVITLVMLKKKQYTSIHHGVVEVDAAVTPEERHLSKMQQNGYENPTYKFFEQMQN

[3] = target: Amyloid-beta precursor protein (Homo sapiens) (UniProt P05067); assay: Inhibition of amyloid beta (1 to 42) (unknown origin) self-aggregation assessed as absence of fibrillar aggregates at 1:5 amyloid-beta:compound concentration ratio measured immediately by scanning transmission electron microscopic analysis
[4] = target: Amyloid-beta precursor protein (Homo sapiens) (UniProt P05067); assay: Inhibition of amyloid beta (1 to 40) (unknown origin) self-aggregation assessed as beta-sheet content at 1:5 amyloid-beta:compound concentration ratio incubated for 48 hrs by CD spectroscopy (reference value: 59.7 %); parameters: scale not given: the % may be the effect or the level left
[5] = target: Amyloid-beta precursor protein (Homo sapiens) (UniProt P05067); assay: Inhibition of amyloid beta (1 to 42) (unknown origin) self-aggregation assessed as absence of fibrillar aggregates at 1:5 amyloid-beta:compound concentration ratio measured immediately by high-resolution transmission electron microscopic analysis
[6] = Inhibition of amyloid beta-induced neurotoxicity in rat PC-12 cells at 4 uM by MTT assay relative to control; assay type: functional
[7] = target: Amyloid-beta precursor protein (Homo sapiens) (UniProt P05067); assay: Inhibition of amyloid beta (1 to 42) (unknown origin) self-aggregation assessed as alpha-helix content at 1:5 amyloid-beta:compound concentration ratio incubated for 48 hrs by CD spectroscopy (reference value: 0 %); parameters: scale not given: the % may be the effect or the level left
[8] = target: Amyloid-beta precursor protein (Homo sapiens) (UniProt P05067); assay: Inhibition of amyloid beta (1 to 42 ) (unknown origin) self aggregation in liposome-mimicked rat neuronal membrane assessed as fluorescence quenching at 1:5 amyloid-beta:compound concentration ratio incubated for 72 hrs by ANS fluorescence spectra; assay type: cell membranes; conditions: Neuron
[9] = target: Amyloid-beta precursor protein (Homo sapiens) (UniProt P05067); assay: Inhibition of amyloid beta (1 to 40)/amyloid beta (1 to 42) (unknown origin) self-aggregation assessed as alpha-helix content at 1:5 amyloid-beta:compound concentration ratio incubated for 48 hrs by CD spectroscopy (reference value: 0 %); parameters: scale not given: the % may be the effect or the level left
[10] = target: Amyloid-beta precursor protein (Homo sapiens) (UniProt P05067); assay: Inhibition of amyloid beta (1 to 42) (unknown origin) self-aggregation assessed as absence of fibrillar aggregates at 1:5 amyloid-beta:compound concentration ratio incubated for 72 hrs by high-resolution transmission electron microscopic analysis
[11] = target: Amyloid-beta precursor protein (Homo sapiens) (UniProt P05067); assay: Inhibition of amyloid beta (1 to 42) (unknown origin) self-aggregation assessed as reduction in polydispersity index measured after 7 days by dynamic light scattering analysis; conditions: time 7.0 day
[12] = Cytotoxicity against rat PC-12 cells assessed as cell viability at 20 uM by MTT assay relative to control; assay type: toxicity, cell-based; conditions: read-out: Activity
[13] = Cytotoxicity against rat PC-12 cells assessed as cell viability at 50 uM by MTT assay relative to control; assay type: toxicity, cell-based; conditions: read-out: Activity
[14] = target: Amyloid-beta precursor protein (Homo sapiens) (UniProt P05067); assay: Inhibition of amyloid beta (1 to 42 ) (unknown origin) self-aggregation assessed as decrease in appearance of peak at m/z 685.4383 at 1:5 amyloid-beta:compound concentration ratio incubated for 72 hrs by HRMS-ESI analysis
[15] = Inhibition of amyloid beta-induced neurotoxicity in rat PC-12 cells at 10 uM by MTT assay relative to control; assay type: functional
[16] = target: Amyloid-beta precursor protein (Homo sapiens) (UniProt P05067); assay: Inhibition of amyloid beta (1 to 42) (unknown origin) self-aggregation assessed as beta-sheet content at 1:5 amyloid-beta:compound concentration ratio incubated for 48 hrs by CD spectroscopy (reference value: 55.2 %); parameters: scale not given: the % may be the effect or the level left
[17] = Inhibition of amyloid beta-induced neurotoxicity in rat PC-12 cells at 2 uM by MTT assay relative to control; assay type: functional
[18] = target: Amyloid-beta precursor protein (Homo sapiens) (UniProt P05067); assay: Inhibition of amyloid beta (1 to 40) (unknown origin) self-aggregation assessed as beta-turn content at 1:5 amyloid-beta:compound concentration ratio incubated for 48 hrs by CD spectroscopy (reference value: 0 %); parameters: scale not given: the % may be the effect or the level left
PC-12 [19] = assay: Protection against amyloid beta-induced neurotoxicity in rat PC-12 cells assessed as cell viability at 2 uM by MTT assay (reference value: 63.6 %); assay type: functional; conditions: read-out: Activity
[20] = target: Amyloid-beta precursor protein (Homo sapiens) (UniProt P05067); assay: Inhibition of amyloid beta (1 to 42) (unknown origin) self-aggregation assessed as beta-turn content at 1:5 amyloid-beta:compound concentration ratio incubated for 48 hrs by CD spectroscopy (reference value: 44.8 %); parameters: scale not given: the % may be the effect or the level left
[21] = target: Amyloid-beta precursor protein (Homo sapiens) (UniProt P05067); assay: Inhibition of amyloid beta (1 to 42 ) (unknown origin) self-aggregation assessed as appearance of peak at m/z 722.4940 at 1:5 amyloid-beta:compound concentration ratio incubated for 72 hrs by HRMS-ESI analysis
[22] = target: Amyloid-beta precursor protein (Homo sapiens) (UniProt P05067); assay: Inhibition of amyloid beta (1 to 42 ) (unknown origin) self-aggregation assessed as appearance of peak at m/z 507.3270 at 1:5 amyloid-beta:compound concentration ratio incubated for 72 hrs by HRMS-ESI analysis
[23] = target: Amyloid-beta precursor protein (Homo sapiens) (UniProt P05067); assay: Inhibition of amyloid beta (1 to 42) (unknown origin) self aggregation at 2 to 10 uM by ThT fluorescence assay; conditions: dose 2-10 µM
[24] = target: Amyloid-beta precursor protein (Homo sapiens) (UniProt P05067); assay: Inhibition of amyloid beta (1 to 40)/amyloid beta (1 to 42) (unknown origin) self-aggregation assessed as beta-turn content at 1:5 amyloid-beta:compound concentration ratio incubated for 48 hrs by CD spectroscopy (reference value: 29.2 %); parameters: scale not given: the % may be the effect or the level left
[25] = target: Amyloid-beta precursor protein (Homo sapiens) (UniProt P05067); assay: Inhibition of amyloid beta (1 to 42) (unknown origin) self-aggregation assessed as random coil content at 1:5 amyloid-beta:compound concentration ratio incubated for 48 hrs by CD spectroscopy (reference value: 0 %); parameters: scale not given: the % may be the effect or the level left
[26] = target: Amyloid-beta precursor protein (Homo sapiens) (UniProt P05067); assay: Inhibition of amyloid beta (1 to 42) (unknown origin) self aggregation at 10 uM by ThT fluorescence assay relative to control
PC-12 [27] = assay: Protection against amyloid beta-induced neurotoxicity in rat PC-12 cells assessed as cell viability at 10 uM by MTT assay (reference value: 63.6 %); assay type: functional; conditions: read-out: Activity
[28] = target: Amyloid-beta precursor protein (Homo sapiens) (UniProt P05067); assay: Inhibition of amyloid beta (1 to 42) (unknown origin) self-aggregation assessed as Z-average value measured after 7 days by dynamic light scattering analysis; conditions: time 7.0 day
[29] = target: Amyloid-beta precursor protein (Homo sapiens) (UniProt P05067); assay: Inhibition of amyloid beta (1 to 42 ) (unknown origin) self-aggregation assessed as appearance of peak at m/z 1224.4239 at 1:5 amyloid-beta:compound concentration ratio incubated for 72 hrs by HRMS-ESI analysis
[30] = target: Amyloid-beta precursor protein (Homo sapiens) (UniProt P05067); assay: Inhibition of amyloid beta (1 to 42) (unknown origin) self-aggregation assessed as absence of fibrillar aggregates at 1:5 amyloid-beta:compound concentration ratio incubated for 72 hrs by scanning transmission electron microscopic analysis
[31] = target: Amyloid-beta precursor protein (Homo sapiens) (UniProt P05067); assay: Inhibition of amyloid beta (1 to 40) (unknown origin) self-aggregation assessed as alpha-helix content at 1:5 amyloid-beta:compound concentration ratio incubated for 48 hrs by CD spectroscopy (reference value: 0 %); parameters: scale not given: the % may be the effect or the level left
[32] = target: Amyloid-beta precursor protein (Homo sapiens) (UniProt P05067); assay: Inhibition of amyloid beta (1 to 42) (unknown origin) self-aggregation measured for 7 days by ThT fluorescence assay; conditions: time 7.0 day
[33] = target: Amyloid-beta precursor protein (Homo sapiens) (UniProt P05067); assay: Inhibition of amyloid beta (1 to 40)/amyloid beta (1 to 42) (unknown origin) self-aggregation assessed as random coil content at 1:5 amyloid-beta:compound concentration ratio incubated for 48 hrs by CD spectroscopy (reference value: 0 %); parameters: scale not given: the % may be the effect or the level left
[34] = target: Amyloid-beta precursor protein (Homo sapiens) (UniProt P05067); assay: Inhibition of amyloid beta (1 to 42) (unknown origin) self aggregation at 2 uM by ThT fluorescence assay relative to control
[35] = target: Amyloid-beta precursor protein (Homo sapiens) (UniProt P05067); assay: Inhibition of amyloid beta (1 to 40)/amyloid beta (1 to 42) (unknown origin) self-aggregation assessed as beta-sheet content at 1:5 amyloid-beta:compound concentration ratio incubated for 48 hrs by CD spectroscopy (reference value: 70.8 %); parameters: scale not given: the % may be the effect or the level left

Compound: H-RIIGL-NH2
viability at 50 µM (SH-SY5Y): 84%

Activity [2]: 38.1% | inhibition [3]: Active | Activity [4]: 0% | inhibition [5]: Active | Activity [7]: 14.4% | Activity [9]: 23.9% | inhibition [10]: Active | inhibition [11]: Active | inhibition [14]: Active; Peak Corresponds To Aggregates | Activity [16]: 0% | Activity [18]: 40.3% | Activity [20]: 49% | inhibition [23]: Active | Activity [24]: 48.4% | Activity [25]: 36.6% | inhibition [26]: 80.8% | inhibition [28]: Active | inhibition [30]: Active | Activity [31]: 21.6% | inhibition [32]: Active | Activity [33]: 25.7% | inhibition [34]: 62.7% | Activity [35]: 1.9%
Compound: CC[C@H](C)[C@H](NC(=O)[C@H](C)N)C(=O)NC(C)(C)C(=O)N[C@H](C(N)=O)C(C)C (H-AI[Aib]V-NH2)
viability at 4 µM (PC-12 [1]): 82.8% | inhibition at 4 µM [6]: 53% | inhibition [8]: Active; Blue Shift Of 2 To 3 Nm And Isoemissive Point At ~427 Nm Observed | viability at 20 µM [12]: 98.5% | viability at 50 µM [13]: 97.9% | inhibition at 10 µM [15]: 73% | inhibition at 2 µM [17]: 7% | viability at 2 µM (PC-12 [19]): 66.1% | inhibition [21]: Active; Peaks Corresponds To [Amyloidbeta (1 To 42) + M + Na]7+ | inhibition [22]: Active; Peaks Corresponds To [Amyloidbeta (1 To 42) + M]4+ | viability at 10 µM (PC-12 [27]): 90.2% | inhibition [29]: Active; Peaks Corresponds To [(Amyloidbeta (21 To 42) + M)4+ ]
